Reference: publication PMC10053369, “Recombinant Analogs of Sea Anemone Kunitz-Type Peptides Influence P2X7 Receptor Activity in Neuro-2a Cells” (Marine Drugs, 2023)
Positions of bridges follow the written chain, without caps; N, C: chain ends. No end group written: not given here.

Legend:
[1] = biological target: T1, hP2X7 (47–334 a.a., extracellular domain, 36.8 kDa) (Homo sapiens, UniProt Q99572); test: Surface plasmon resonance (Biacore 3000); type: binding
T1 construct: hP2X7 (47–334 a.a., extracellular domain, 36.8 kDa); purchased Abbexa LTD, Cambridge, UK abx167020
T1 sequence (Q99572 47-334): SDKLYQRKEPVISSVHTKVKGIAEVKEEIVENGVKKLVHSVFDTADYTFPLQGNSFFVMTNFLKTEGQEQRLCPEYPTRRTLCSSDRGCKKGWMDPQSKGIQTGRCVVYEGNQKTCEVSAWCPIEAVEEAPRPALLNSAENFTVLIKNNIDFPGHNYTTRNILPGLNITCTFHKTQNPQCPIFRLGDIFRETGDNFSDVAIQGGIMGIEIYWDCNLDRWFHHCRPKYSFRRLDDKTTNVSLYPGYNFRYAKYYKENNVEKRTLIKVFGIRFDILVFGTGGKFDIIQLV
Method: SPR analysis was performed at 25 °C using a Biacore® 3000 optical biosensor (GE Healthcare, Chicago, IL, USA) and CM5 sensor chips. HBS-N (10 mM HEPES, 150 mM NaCl, pH 7.4) (Cytiva, Chicago, IL, USA) was used as a working buffer for the immobilization of hP2X7 (47–334 a.a., extracellular domain, 36.8 kDa) (abx167020 Abbexa LTD, Cambridge, UK). The carboxyl groups of the dextran biosensor chip were activated for 5 min by introducing a 1:1 mixture of 0.2 M 1-ethyl-3-(3-dimethylaminopropyl)carbodiimide hydrochloride (EDC) and 0.05 M N-hydroxysuccinimide (NHS) at a rate of 5 µL/min followed by a 1 min wash with HBS-N buffer at the same flow rate. Next, hP2X7 (15 μg/mL) in 10 mM sodium acetate (pH 5.0) was injected into the working channel of the biosensor for 10 min at a flow rate of 5 μL/min. The final level of immobilization was 12300 RU (12.3 ng of protein). The control channel without immobilized P2X7R was used to correct the effects of the nonspecific binding of analytes to the chip surface.
Lyophilized peptides were prepared as 100 μM stock solutions in HBS-N buffer. Experimental peptide samples were prepared in the range of 5–100 μM. The samples were injected through the channels of the biosensor (working and reference) at a flow rate of 10 μL/min for 6 min. The dissociation of the formed peptide/P2X7 complexes was recorded for at least 6 min from the moment of injection at the same flow rate after the injection of the sample. After each cycle of the biosensor, the bound analyte was removed by double injection of the regenerating solution (2 M NaCl, 1% CHAPS) at a flow rate of 30 μL/min for 30 s.
SPR sensorgrams were processed in Biacore 3000 Evaluation Software v.1.0 (GE Healthcare, Chicago, IL, USA) and BIAevaluation Software v. 4.1.1 (GE Healthcare, Chicago, IL, USA) using “1:1 binding (Langmuir)” and “two-state binding (conformational change)” data processing models.
The 1:1 (Langmuir) binding model is a 1:1 interaction model between a compound (C) and an immobilized protein (P) and is equivalent to the Langmuir isotherm for surface adsorption: C + P ↔ CP.
The two-state binding (conformational change) model describes the 1:1 binding of a compound (C) to an immobilized protein (P) followed by a conformational change in the complex (CP ↔ CP*). It is assumed that the conformationally changed complex can dissociate only by the reverse conformational change: C + P ↔ CP ↔ CP*. The final kinetic parameters were obtained from the models that best agree with the experimental curves for the minimum of the obtained value of chi2. The equations describing the models used are as follows: • (1) 1:1 (Langmuir) binding: Kd = koff/kon, where Kd is the equilibrium dissociation constant, koff is the dissociation rate constant, kon is the association rate constant. • (2) Reaction of two states (with conformational change): Kd = koff1/kon1 × (1 + kon2/koff2) − 1, where Kd is the equilibrium dissociation constant, koff1 is the dissociation rate constant, kon1 is the association rate constant, kon2 is the direct association rate constant for the CP ↔ transition CP*, koff2 is the inverse dissociation rate constant for the CP ↔ CP* transition.
The model describing the interaction was chosen according to the lowest chi2 parameter’s value. Chi2 is a measure of the average squared residual between the experimental data and the fitted curve.

P2X7 in Neuro-2a cells = test: ATP-induced YO-PRO-1 uptake (P2X7 pore formation); type: cell-based, mouse; conditions: short-term effect
Method: Neuro-2a neuroblastoma cells (ATCC® CCL-131™) were obtained from American Type Culture Collection (Manassas, VA, USA). The cells were cultivated in DMEM medium (BioloT, St. Petersburg, Russia) supplemented with 10% of fetal bovine serum (BioloT, St. Petersburg, Russia) and 1% penicillin/streptomycin (BioloT, St. Petersburg, Russia) at 37 °C and 5% CO2. Initially, cells were incubated in cultural flasks until sub-confluent (~80%). For testing, Neuro-2a cells were seeded in 96-well plates and experiments were started after 24 h.
Neuro-2a cells were seeded in 96 well plates at a density of 4 × 10^4 cells/well and incubated in DMEM for 24 h, 37 °C, 5% CO2. Then the cells were washed once with HBSS and filled with 180 μL of the same buffer. YO-PRO-1 (Sigma-Aldrich, St. Louis, MO, USA, 5 μM final concentration) was loaded into the wells, the cells were incubated for 15 min at 37 °C. Further, the studied peptides were added to the cells at concentrations of 10, 1, 0.1 and 0.01 μM and incubated for 10 min at 37 °C. After that ATP (4 mM final concentration) was added and the plates were incubated for an additional 10 min. The standard P2X7R inhibitor, A438079 (Sigma-Aldrich, St. Louis, MO, USA), was used as inhibitory control. Then the cells were washed three times with the buffer solution and fluorescence intensity was measured with PHERAstar FS plate reader (BMG, LABTECH, Ortenberg, Germany) at λex = 485 nm and λem= 520 nm in the “End Point” mode. The effectiveness of compounds was evaluated relative to control without ATP.
All data were obtained in three independent replicates and calculated values were expressed as mean ± standard error of the mean (SEM). The Student’s t-test was performed using SigmaPlot 14.0 (Systat Software Inc., San Jose, CA, USA) to determine statistical significance.

[2] = model: binding with two states (CP ↔ CP* transition), 25 °C, HBS-N pH 7.4, average ± SD, n = 3
[3] = model: binding with two states, 25 °C, HBS-N pH 7.4, average ± SD, n = 3

“RGICSEPKVVGPCKAGLRRFYYDSETGECKPFIYGGCKGNKNNFETLHACRGICRA (disulfide 4-54, 13-37, 29-50 (inferred)) [HCRG1]” was tested, and the “affinity to P2X7” value ([1]; SPR, peptides 5–100 μM) was “highest affinity”, the koff2 [1, 2] was “(1.5 ± 0.20) × 10^−3 c^−1” and the kon2 [1, 2] was “(8.5 ± 1.0) × 10^−3 mole^−1c^−1”. The koff1 [1, 3] was “(4.37 ± 0.57) × 10^−2 c^−1”, the kon1 [1, 3] was “(9.20 ± 1.10) × 10^2 mole^−1c^−1” and the Kd ([1]; model: binding with two states, 25 °C, HBS-N pH 7.4, n = 3) was 7.13 µM. For the same sequence, the “entry of YO-PRO-1 into cells (summary in discussion)” value (P2X7 in Neuro-2a cells) was “regulating the entry of low molecular weight fluorescent dye YO-PRO-1 into cells”.
